Test results: patent US10562864B2, “Chemical modulators of immune checkpoints and therapeutic use” (Duke University, priority 2015, dated 2020)
Entries after “also recorded” stand apart in the source; their conditions may differ.

Columns and labels:
PD1-GFP [1] = target: T1, PD1-GFP (Homo sapiens, UniProt Q15116); assay: Internalization assay (PD1-GFP), confocal imaging of PD1-GFP stable U2OS cells; format: cell-based; parameters: Internalized PD1-GFP punctate; 6 hr (10 μM): key to the marks not given beside the values; settings: 37° C.
T1 construct: expressed in transfected cells; host or cells: U2OS
Protocol: U2OS cells were transfected with PD1-GFP and stable receptor-expressing cells were selected using 0.5 mg/ml Geneticin in the culture medium. […] The plates were incubated overnight at 37° C. in 5% CO2. The following day, chemical compounds (10 mM in DMSO) were diluted 1:200 in culture medium, 6.25 μL of which was then added to each well of cells to produce a 1:1000 dilution overall and final compound concentration of 10 μM per well. The cells were incubated with compound for 6 h at 37° C. prior to fixation in PBS containing 0.5% paraformaldehyde for 30 min at room temperature. The wells were then washed with PBS three times and stored at 4° C. The cells were imaged using a Zeiss LSM-510 confocal microscope.

phospho-Erk1/2 = assay: Western blot analysis of phospho-Erk1/2 levels in 4T1-PD1 cells; format: cell-based, murine; settings: 24 hours, FIG. 11, 12
Protocol: 4T1-PD1 cells (30K cells/per well) were seeded in 12-well plates overnight. On the following day, the compounds were added and the cells were incubated for 24 hours. The cells were then lysed in SDS sample buffer and analyzed by western blots.
4T1-PD1 cells (30K cells/per well) were seeded in 12-well plates overnight. On the following day, the compounds were added and the cells were incubated for 24 hours. The cells were then lysed in SDS sample buffer and analyzed by western blot.
4T1 Murine breast cancer cells stably expressing PD1 were seeded in 12-well plates (30 k cells/well) and incubated overnight. On the next day, compounds were added to produce the final concentration desired and the cells were incubated for […]. Cells were lysed with SDS sample buffer and lysates were subjected to western blot analysis

PD-1 = assay: Western blot analysis of PD-1 protein level in 4T1 cells stably expressing PD-1; format: cell-based, murine; parameters: key to Decrease in PD1 protein level by western blot at 24 h at 5 μM: † 3+ Scale with + least and +++ most; † 3+ Scale with + least and +++ most; † 3+ Scale with + least and +++ most; key to Decrease in PD1 protein level by western blot at 4 days at 3 μM: ‡ 3+ Scale with + least and +++ most; ‡ 3+ Scale with + least and +++ most; ‡ 3+ Scale with + least and +++ most; settings: for Decrease in PD1 protein level by western blot at 4 days at 3 μM / Decrease in PD1 protein level by western blot at 24 h at 5 μM / PD-1 protein levels by western blot after 4 days: 4T1-PD1 cells; for PD-1 protein levels by western blot at 24 hours: 4T1 cells stably expressing PD-1, FIG. 9, 10, 12; for PD-1 protein levels by western blot after 4 days: FIG. 13
Protocol: Murine breast cancer cells were grown in DMEM medium supplemented with 10% FBS and penicillin and streptomycin antibiotics at 37° C. in 5% CO2.
4T1 Murine breast cancer cells stably expressing PD1 were seeded in 12-well plates (30 k cells/well) and incubated overnight. […] Cells were lysed with SDS sample buffer and lysates were subjected to western blot analysis
4T1-PD1 cells were seeded in 12-well plates (100 k cells/well) overnight. On the next day, compounds were added and the cells incubated for 4 days. The cells were then lysed in SDS sample buffer and lysates were subjected to western blot analysis

PD1-GFP [2] = target: T1, PD1-GFP; assay: Internalization assay (PD1-GFP), confocal imaging of PD1-GFP stable U2OS cells; format: cell-based; settings: 0.25 μM to 10 μM, 6 h, see FIG. 6/7
CTLA4-GFP = target: T2, CTLA4-GFP (Homo sapiens, UniProt P16410); assay: CTLA4-GFP internalization, confocal imaging of CTLA4-GFP stable U2OS cells; format: cell-based; parameters: key to Internalized CTLA4-GFP punctate; 6 hr (10 μM): **4+ Scale with + least and ++++ most; **4+ Scale with + least and ++++ most; **4+ Scale with + least and ++++ most; **4+ Scale with + least and ++++ most
T2 construct: expressed in transfected cells; host or cells: U2OS
T2 sequence (P16410 36-223): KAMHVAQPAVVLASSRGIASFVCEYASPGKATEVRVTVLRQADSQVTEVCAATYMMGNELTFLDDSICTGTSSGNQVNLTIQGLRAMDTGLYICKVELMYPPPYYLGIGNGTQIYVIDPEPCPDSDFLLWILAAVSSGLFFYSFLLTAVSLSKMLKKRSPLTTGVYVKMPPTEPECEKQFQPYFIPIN

PDL1-GFP = target: T3, PDL1-GFP (Homo sapiens, UniProt Q9NZQ7); assay: Confocal imaging of PDL1-GFP stable U2OS cells; format: cell-based; settings: 10 μM, 6 h, 37° C., FIG. 2
T3 construct: expressed in transfected cells; host or cells: U2OS
T3 sequence (Q9NZQ7 19-290): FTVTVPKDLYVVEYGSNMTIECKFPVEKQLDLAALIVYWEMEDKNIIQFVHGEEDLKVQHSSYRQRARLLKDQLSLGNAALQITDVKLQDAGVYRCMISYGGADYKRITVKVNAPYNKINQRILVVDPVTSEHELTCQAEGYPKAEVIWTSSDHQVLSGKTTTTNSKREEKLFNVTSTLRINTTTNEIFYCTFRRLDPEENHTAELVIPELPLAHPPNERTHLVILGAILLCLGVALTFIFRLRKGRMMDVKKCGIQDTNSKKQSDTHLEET

T1 sequence (Q15116 25-288): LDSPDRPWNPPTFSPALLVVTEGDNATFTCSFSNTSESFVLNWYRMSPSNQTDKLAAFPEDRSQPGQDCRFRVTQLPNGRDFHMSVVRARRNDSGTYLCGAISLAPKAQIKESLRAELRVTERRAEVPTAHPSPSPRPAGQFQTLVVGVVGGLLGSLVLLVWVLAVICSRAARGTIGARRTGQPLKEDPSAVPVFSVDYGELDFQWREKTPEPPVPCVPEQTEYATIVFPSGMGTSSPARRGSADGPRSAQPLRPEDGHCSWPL

| Compound | Internalized PD1-GFP punctate; 6 hr (10 μM) (PD1-GFP [1]) | Decrease in PD1 protein level by western blot at 24 h at 5 μM (PD-1) | PD-1 protein levels by western blot at 24 hours (PD-1) | also measured |
| --- | --- | --- | --- | --- |
| O=[N+]([O-])c1ccc2[nH]c(-c3cc(Cl)ccc3O)nc2c1 [Compound 2, 4-Chloro-2-(5-nitro-1H-benzo[d]imidazol-2-yl)phenol] | ++++ | ++ | lower PD-1 and phopho-Erk1/2 protein levels | phospho-Erk1/2 levels by western blot (phospho-Erk1/2): lower PD-1 and phopho-Erk1/2 protein levels; Decrease in PD1 protein level by western blot at 4 days at 3 μM (PD-1): +++; PD-1 protein levels by western blot after 4 days (PD-1): lower PD-1 protein levels |
| O=[N+]([O-])c1ccc2[nH]c(-c3cc(F)ccc3O)nc2c1 [Compound 3, 4-fluoro-2-(5-nitro-1H-benzo[d]imidazol-2-yl)phenol] | – | ++ | lower PD-1 and phopho-Erk1/2 protein levels | phospho-Erk1/2 levels by western blot (phospho-Erk1/2): lower PD-1 and phopho-Erk1/2 protein levels; Decrease in PD1 protein level by western blot at 4 days at 3 μM (PD-1): +++; PD-1 protein levels by western blot after 4 days (PD-1): lower PD-1 protein levels |
| O=S(=O)(Nc1ccc(C(F)(F)F)cc1Cl)c1cc(Cl)ccc1O [Compound 4, 5-Chloro-N-(2-chloro-4-(trifluoromethyl)phenyl)-2-hydroxybenzenesulfonamide] | ++ | – | – | – |
| O=C(Nc1cc(Cl)cc(Cl)c1)c1cc(Cl)ccc1O [Compound 6, 5-chloro-N-(3,5-dichlorophenyl)-2-hydroxybenzamide] | ++++ | – | – | – |
| CCCCCCCC(=O)Oc1ccc(Cl)cc1C(=O)Nc1ccc([N+](=O)[O-])cc1Cl [Compound 7, 4-Chloro-2-((2-chloro-4-nitrophenyl)carbamoyl)phenyl octanoate] | ++++ | ++ | lower PD-1 protein levels | EC50 (PD1-GFP [2]): 3 µM |
| Cc1ccc(S(=O)(=O)Nc2ccc(Br)cc2C(=O)Nc2ccc(C(F)(F)F)cc2)cc1 [Compound 8, 5-Bromo-2-((4-methylphenyl)sulfonamido)-N-(4-(trifluoromethyl)phenyl)benzamide] | ++++ | – | – | – |
| O=C(Nc1ccc(C(F)(F)F)cc1)c1cc(Cl)cc2[nH]c(C(F)(F)F)nc12 [Compound 9, 6-Chloro-2-(trifluoromethyl)-N-(4-(trifluoromethyl)phenyl)-1H-benzo[d]imidazole-4-carboxamide] | ++++ | – | – | – |
| O=C(Nc1ncc([N+](=O)[O-])s1)c1ccccc1O [Compound 11] | ++ | – | – | – |
| CC[C@@H](C(=O)[C@@H](C)[C@@H](O)[C@H](C)CCc1ccc(C)c(O)c1C(=O)O)[C@H]1O[C@](CC)([C@H]2CC[C@](O)(CC)[C@H](C)O2)C[C@@H]1C [Compound 14, lasalocid] | ++++ | ++ | lower PD-1 protein levels | phospho-Erk1/2 levels by western blot (phospho-Erk1/2): lower phospho-Erk1/2 levels |
| CCN(CC)CCCC(C)Nc1c2ccc(Cl)cc2nc2ccc(OC)cc12 (centres unmarked) [Compound 16] | +++ | – | – | – |
| COc1ccc2cc1Oc1ccc(cc1)C[C@H]1c3cc(c(OC)cc3CCN1C)Oc1c(OC)c(OC)cc3c1[C@H](C2)N(C)CC3 [Compound 17] | +++ | – | – | Decrease in PD1 protein level by western blot at 4 days at 3 μM (PD-1): ++ |
| Cc1cc(/C=C/c2ccc3cc(N(C)C)ccc3[n+]2C)c(C)n1-c1ccccc1 [Compound 18] | ++++ | – | – | Decrease in PD1 protein level by western blot at 4 days at 3 μM (PD-1): +++ |
| CCN(CC)CCCC(C)Nc1ccnc2cc(Cl)ccc12 (centres unmarked) [Compound 19] | +++ | – | – | – |
| CCCCc1oc2ccccc2c1C(=O)c1cc(I)c(OCCN(CC)CC)c(I)c1 [amiodarone] | – | – | – | PD-1 protein levels by western blot after 4 days (PD-1): lower PD-1 protein levels |

Further lines, with some results ahead:

| Internalized PD1-GFP punctate; 6 hr (10 μM) (PD1-GFP [1]) | Compound | Decrease in PD1 protein level by western blot at 24 h at 5 μM (PD-1) | PD-1 protein levels by western blot at 24 hours (PD-1) | also measured |
| --- | --- | --- | --- | --- |
| ++++ | O=[N+]([O-])c1ccc(-c2nnc(-c3cc(Cl)ccc3O)[nH]2)cc1 [Compound 1, 4-Chloro-2-(5-(4-nitrophenyl)-4H-1,2,4-triazol-3-yl)phenol] | – | – | – |
| ++++ | O=C(Nc1ccc(C(F)(F)F)cc1Cl)c1cc(Cl)ccc1O [Compound 5, 5-chloro-N-(2-chloro-4-(trifluoromethyl)phenyl)-2-hydroxybenzamide] | – | – | – |
| ++++ | O=C(Nc1ccc([N+](=O)[O-])cc1Cl)c1cc(Cl)ccc1O [Compound 10, niclosamide] | +++ | decreases PD-1 protein levels; also recorded: lower PD-1 protein levels | EC50 (PD1-GFP [2]): 3 µM; CTLA4-GFP vesicles in confocal images (CTLA4-GFP; 10 μM, 6 h, 37° C., FIG. 3): aggregated CTLA4-GFP vesicles; Internalized CTLA4-GFP punctate; 6 hr (10 μM) (CTLA4-GFP; 6 hr): +++; PD1-GFP internalization in confocal images (PD1-GFP [1]; 10 μM, 6 h, FIG. 1): internalized PD1-GFP vesicles; phospho-Erk1/2 levels by western blot (phospho-Erk1/2): lower phospho-Erk1/2 levels; PDL1-GFP vesicles in confocal images (PDL1-GFP): aggregated PDL1-GFP vesicles; PD-1 protein levels by western blot at 6 hours (PD-1; 6 hrs, 4T1 cells stably expressing PD-1, FIG. 8): decreases PD-1 protein levels |
| ++ | CC(=O)Oc1ccccc1C(=O)Nc1ncc([N+](=O)[O-])s1 [Compound 12, nitazoxanide] | + | lower PD-1 and phopho-Erk1/2 protein levels | phospho-Erk1/2 levels by western blot (phospho-Erk1/2): lower PD-1 and phopho-Erk1/2 protein levels |
| +++ | CCCCc1oc2ccccc2c1C(=O)c1cc(I)c(OCCN(CC)CC)c(I)c1 [Compound 13] | – | – | Decrease in PD1 protein level by western blot at 4 days at 3 μM (PD-1): ++ |
| ++ | CC(NCCC(c1ccccc1)c1ccccc1)c1ccccc1 (centres unmarked) [Compound 15] | – | – | – |
